According to patent US6562335B1, “NK-1 receptor antagonists for prevention of neurogenic inflammation in gene therapy” (Pfizer, Inc., priority 1995, dated 2003):

Target: T1, substance P (NK-1) receptor (Rattus norvegicus, UniProt P14600)
T1 construct: from tissue; host or cells: living Fischer F344 rats; read-out in trachea and main stem bronchi
Test: Capsaicin-induced Evans blue extravasation in airways of rats inoculated endotracheally with Ad5CMVLacZ
Type: in vivo
Conditions: Fischer F344 rats inoculated with Ad5CMVLacZ, 5 days after inoculation; pretreatment 4 mg/kg i.v., n=5; p>0.05 vs vector without pretreatment
Procedure: Pathogen-free Fischer F344 male rats (220-287 grams in weight, 12-14 weeks of age), under sodium pentobarotal anesthesia, received a localized endotracheal inoculation with 100 μL cf phosphate-buffered saline (PBS) containing 3×10^12 particles/mL of Ad5CMVLacZ, an adenovirus type 5 vector defective in the E1 and E3 regions of the viral genome and containing the LacZ transgene under the control of the CMV (cytomegalo virus) immediate early promoter. A control group of rats was inoculated with sterile PBS.
Five minutes after pretreatment, Evans blue dye (30 mg/kg i.v.) was injected into all the rats to measure the increase in vascular permeability associated with the neurogenic inflammation. Capsaicin (75 mg/kg i.v. over 2 min) was injected immediately after Evans blue to stimulate the sensory nerves in the airway mucosa. Five minutes after capsaicin, the rats were perfused through the heart with 100 mL of PBS. The trachea and main stem bronchi were removed and incubated in formamide (18 hours at 50° C.) to extract the extravasated tracer. The magnitude of the Evans blue extravasation was determined by spectrophotometric measurements of the optical density of formamide extracts.

T1 sequence (P14600 whole entry): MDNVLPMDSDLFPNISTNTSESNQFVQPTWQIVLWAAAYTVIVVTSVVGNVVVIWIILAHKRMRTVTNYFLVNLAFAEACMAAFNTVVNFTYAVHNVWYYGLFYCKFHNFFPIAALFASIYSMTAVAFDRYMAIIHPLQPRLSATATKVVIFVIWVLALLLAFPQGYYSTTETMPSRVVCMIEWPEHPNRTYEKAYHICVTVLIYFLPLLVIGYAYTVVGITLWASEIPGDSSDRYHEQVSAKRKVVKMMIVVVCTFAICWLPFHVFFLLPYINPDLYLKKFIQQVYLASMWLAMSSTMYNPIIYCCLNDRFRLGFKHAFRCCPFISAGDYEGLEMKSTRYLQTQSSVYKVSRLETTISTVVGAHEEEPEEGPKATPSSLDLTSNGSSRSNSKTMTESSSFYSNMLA

extravasation of Evans blue produced by capsaicin (trachea and main stem bronchi), mean ±SEM: 88.3 ± 5.8 ng/mg
Structure (SMILES): COc1ccccc1CN[C@@H]1CCCN[C@@H]1c1ccccc1 [compound B, (2R,3R)-2-phenyl-3-[(2-methoxyphenyl)methylamino]piperidine]
